# Measured values from BindingDB's records for doi:10.1021/jm025502x (2002).
# Key:
# [1] = In vitro inhibitory concentration against Methionyl-tRNA synthetase in a pyrophosphate exchange assay
# [2] = target: Methionyl-tRNA synthetase (Staphylococcus aureus); assay: In vitro inhibitory concentration against Staphylococcus aureus Methionyl-tRNA synthetase
Compound,IC50 [1] [nM],IC50 [2] [nM]
"Oc1cc(NCCCNCc2ccc(Cl)c(Cl)c2)nc2ccccc12 [2-[3-(3,4-Dichloro-benzylamino)-propylamino]-1H-quinolin-4-one]",500,–
"Oc1cc(NCCCNC2CCNc3c(Br)cc(Br)cc32)nc2ccccc12 (stereo not drawn) [2-[3-(6,8-Dibromo-1,2,3,4-tetrahydro-quinolin-4-ylamino)-propylamino]-1H-quinolin-4-one]",1,–
"CCc1cc(I)c2c(c1)C(NCCCNc1cc(O)c3ccccc3n1)CCN2 (stereo not drawn) [2-[3-(6-Ethyl-8-iodo-1,2,3,4-tetrahydro-quinolin-4-ylamino)-propylamino]-1H-quinolin-4-one]",–,12
